Experimental findings from patent US12281114B2, “NK3 modulators and uses thereof” (Kallyope, Inc., priority 2023, dated 2025) are described below.

As usually defined, the IC50 is the concentration needed to halve the response being measured.

This experiment concerns the target T1, human NK3 (Homo sapiens, UniProt P29371).
T1 sequence (P29371 1-465): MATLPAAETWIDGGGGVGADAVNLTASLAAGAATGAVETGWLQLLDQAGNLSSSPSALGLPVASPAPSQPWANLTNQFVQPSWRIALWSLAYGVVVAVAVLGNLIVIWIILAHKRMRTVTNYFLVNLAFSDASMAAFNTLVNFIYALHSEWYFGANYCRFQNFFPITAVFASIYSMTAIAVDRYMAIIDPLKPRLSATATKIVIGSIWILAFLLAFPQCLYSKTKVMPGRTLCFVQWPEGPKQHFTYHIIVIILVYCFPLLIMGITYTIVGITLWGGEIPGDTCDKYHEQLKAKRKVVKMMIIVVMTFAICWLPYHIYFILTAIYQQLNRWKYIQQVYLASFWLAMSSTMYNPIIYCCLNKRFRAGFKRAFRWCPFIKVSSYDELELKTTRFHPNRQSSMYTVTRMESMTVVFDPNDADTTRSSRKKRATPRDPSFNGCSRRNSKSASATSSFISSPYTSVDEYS
Briefly: FLIPR calcium assay in antagonist mode (NKB EC70 challenge). The experiment is classed as cell-based. As to conditions: stable cell line expressing human recombinant NK3; antagonist mode vs EC70 of NKB agonist. The procedure: Stable Cell Lines: A human recombinant NK3 Tachykinin Receptor stable cell line was purchased from GenScript (Genscript, Cat. #M00201; GenBank Accession Number NM 001059). The cell line was cultured according to manufacturer instructions, using 100 μg/mL Hygromycin B (Invitrogen, Cat. #D2650) for selective pressure. Cells were then collected using 0.05% Trypsin-EDTA (GIBCO, Cat. #25300) and frozen in a freezing media containing 90% FBS (Gibco, Cat. #10099-141) and 10% DMSO (Sigma, Cat. #D2650) at a density of 30×10^6 cells/mL. This bank of assay-ready frozen cells was later used in FLIPR assays to evaluate the potency and efficacy of NK3 antagonist test compounds.
FLIPR Calcium Assay: The FLIPR assay, used to measure changes in intracellular calcium levels, was performed in a 384-well plate format using the FLIPR Calcium 6 assay kit (Molecular Devices, Cat. #R8190). Assay-ready frozen cells expressing human NK3 (Genscript, Cat. #M00201) were thawed, washed, trypsinized, counted using a ViCell, and plated in cell growth media without Hygromycin at a density of […] (40 μL/well).
Calculation of NKB EC70: An EC70 concentration of NKB needed to be determined for competition against test antagonists prior to the compound screen. NKB agonist (Phoenix Pharmaceuticals, Cat. #046-26) was diluted in DMSO at 1800 nM (6-fold the final concentration) and serially diluted to generate a 13-point dose response curve (3-fold serial dilution) using an ECHO. 20 μL of 1× stimulation buffer was added using the BRAVO. 10 μL of DMSO was added while on the FLIPR (described as the first addition), then the RFU signal was measured for 10 minutes. The NKB titration was added to the plate, then the RFU signal was measured for 10 minutes (described as the second addition) on the FLIPR. The EC70 concentration was determined by using a four-parameter fit on GraphPad Prism prior to performing the compound screen.
FLIPR Screen in Antagonist Mode: Test compounds were prepared at 60 μM (6-fold the final concentration) and spotted in 370 nL using the Janus and ECHO. 20 μL of assay buffer was added using the BRAVO. Calcium-sensitive dye was reconstituted in loading buffer (Molecular Devices, Cat. #R8190). Media was removed from the cell plate using a Bluecat Cell Washer, and 40 μL of dye was added to the cell plate using the Apricot. The plate was incubated for 2 hours at 37° C., 5% CO2, then transferred to the FLIPR instrument. 10 μL of compound was added on the FLIPR (described as the first addition), then the RFU signal was measured for 10 minutes. EC70 of NKB agonist was added to the entire plate (described as the second addition), and the RFU signal was measured for 10 minutes on the FLIPR. RFU (relative fluorescence units) signals for first baseline, first peak, second baseline, and second peak were measured using the FLIPR. RFU signal (second peak minus second baseline) for positive (Max, at 10 μM antagonist) and negative (Min, at 0 μM antagonist) controls were used to normalize data and generate values for % Activity. IC50 and efficacy values were determined using a standard curve fitting equation on Dotmatics.
Regarding `C[C@]1(O)C[C@H](NC(=O)c2ccn3c(Cl)c(-c4ccccc4-c4cnn(C(F)F)c4Cl)nc3c2)C1` [Compound 818], the 50% inhibitory concentration (IC50) was 0.99 nM.

Consider `C[C@]1(O)C[C@H](NC(=O)c2ccn3c(Cl)c(-c4ccccc4-c4cn(C(F)F)nc4Cl)nc3c2)C1` [Compound 819], for which the concentration for half-maximal inhibition (IC50) came to 6.12 nM. Next, `C[C@]1(O)C[C@H](NC(=O)c2ccn3c(Cl)c(-c4ccccc4-c4cnn(C(F)(F)F)c4Cl)nc3c2)C1` [Compound 820]: 0.77 nM; `C[C@]1(O)C[C@H](NC(=O)c2ccn3c(Cl)c(-c4ccccc4-c4cn(C(F)(F)F)nc4Cl)nc3c2)C1` [Compound 821]: 2.49 nM. The same measure for `Cc1nn(C)cc1-c1cc(F)ccc1-c1nc2cc(C(=O)NC34CNC(C3)C4)ccn2c1Cl` [Compound 822]: 9.61 nM; for `Cc1nn(C)cc1-c1cncc(F)c1-c1nc2cc(C(=O)N[C@H]3C[C@@](C)(O)C3)ccn2c1Cl` [Compound 823]: 3.25 nM; for `Cc1nn(C)cc1-c1c(F)cncc1-c1nc2cc(C(=O)N[C@H]3C[C@](C)(O)C3)ccn2c1Cl` [Compound 824]: 5.89 nM. The same measure for `Cc1nn(C)cc1-c1ccncc1-c1nc2cc(C(=O)N[C@H]3C[C@](C)(O)C3)ccn2c1Cl` [Compound 825]: 7.72 nM; for `C[C@]1(O)C[C@H](NC(=O)c2ccn3c(Cl)c(-c4ccccc4-c4cn(C5CC5)nc4Cl)nc3c2)C1` [Compound 826]: 1.4 nM. Consider `Cn1cc(-c2cccc(F)c2-c2nc3cc(C(=O)N[C@H]4C[C@](C)(O)C4)ccn3c2Cl)c(F)n1` [Compound 828], for which the 50% inhibitory concentration (IC50) was 0.3 nM.

As for `CC1(O)CCN(C(=O)c2ccn3c(Cl)c(-c4c(F)cc(F)cc4-c4c[nH]nc4F)nc3c2)CC1` [Compound 829], the IC50 amounted to 8.27 nM.

Turning to `O=C(NC1CS(=O)(=O)C1)c1ccn2c(Cl)c(-c3c(F)cc(F)cc3-c3c[nH]nc3F)nc2c1` [Compound 830], the IC50 was 6.63 nM. Next, `Cc1c(-c2c(F)cc(F)cc2-c2cn(C)nc2F)nc2cc(C(=O)N[C@H]3C[C@@](C)(O)C3)ccn12` [Compound 831]: 3.66 nM; `Cn1ncc(-c2cc(F)cc(F)c2-c2nc3cc(C(=O)N[C@H]4C[C@@](C)(O)C4)ccn3c2Cl)c1F` [Compound 832]: 6.91 nM.

Consider `CO[C@H]1C[C@@H](NC(=O)c2ccn3c(F)c(-c4c(F)cc(F)cc4-c4c[nH]nc4Cl)nc3c2)C1` [Compound 833], for which the IC50 was found to be 2.68 nM. With `O=C(NCC1(O)COC1)c1ccn2c(F)c(-c3c(F)cc(F)cc3-c3c[nH]nc3Cl)nc2c1` [Compound 834], the IC50 was 6.01 nM.

As for `Cn1cc(-c2cccc(F)c2-c2nc3cc(C(=O)N[C@H]4C[C@@](C)(O)C4)ccn3c2Cl)cn1` [Compound 835], the IC50 is 6.24 nM. The same measure for `CC(C)(O)C12CC(NC(=O)c3ccn4c(F)c(-c5c(F)cccc5-c5c[nH]nc5F)nc4c3)(C1)C2` [Compound 836]: 1.1 nM; for `Cn1cc(-c2cccc(F)c2-c2nc3cc(C(=O)N[C@@H]4CC[C@@H](CO)OC4)ccn3c2Cl)c(F)n1` [Compound 837]: 1.01 nM; for `Cn1cc(-c2cccc(F)c2-c2nc3cc(C(=O)NC45COC(CO)(C4)C5)ccn3c2Cl)c(F)n1` [Compound 838]: 5.17 nM. Regarding `Cn1cc(-c2cccc(F)c2-c2nc3cc(C(=O)NCC45CC(CO)(CO4)C5)ccn3c2Cl)c(F)n1` [Compound 839], the half-maximal inhibitory concentration (IC50) is 0.46 nM. The same measure for `Cn1cc(-c2cccc(F)c2-c2nc3cc(C(=O)NC4CC5(COC5)C4)ccn3c2Cl)c(F)n1` [Compound 840]: 0.58 nM. Next, `Cn1cc(-c2cccc(F)c2-c2nc3cc(C(=O)N[C@H]4C[C@@](O)(CO)C4)ccn3c2Cl)c(F)n1` [Compound 841]: 1.25 nM; `Cn1cc(-c2cccc(F)c2-c2nc3cc(C(=O)N4CC5(C4)CC(C)(O)C5)ccn3c2Cl)c(F)n1` [Compound 842]: 1.38 nM; `Cn1cc(-c2cccc(F)c2-c2nc3cc(C(=O)N[C@H]4C[C@](O)(CO)C4)ccn3c2Cl)c(F)n1` [Compound 843]: 1.08 nM. Next, `Cn1cc(-c2cccc(F)c2-c2nc3cc(C(=O)NC[C@H]4C[C@@](C)(O)C4)ccn3c2Cl)c(F)n1` [Compound 844]: 0.42 nM; `C[C@H]1C[C@H](NC(=O)c2ccn3c(Cl)c(-c4c(F)cc(F)cc4-c4c[nH]nc4F)nc3c2)C1` [Compound 847]: 3.57 nM. In the case of `COC12CC(NC(=O)c3ccn4c(Cl)c(-c5c(F)cc(F)cc5-c5c[nH]nc5F)nc4c3)(C1)C2` [Compound 848], the IC50 came to 2 nM. As to `Cn1cc(-c2ccccc2-c2nc3cc(C(=O)NC4CC5(C4)CS(=O)(=O)C5)ccn3c2Cl)c(F)n1` [Compound 849], the IC50 worked out at 0.94 nM. As to `Cn1cc(-c2cccc(F)c2-c2nc3cc(C(=O)NCC45CC(CO)(CCO4)C5)ccn3c2Cl)c(F)n1` [Compound 850], the half-maximal inhibitory concentration (IC50) is 0.31 nM. Next, `O=C(NC1CC(CO)(CO)C1)c1ccn2c(Cl)c(-c3c(F)cc(F)cc3-c3cnn(C4CC4)c3F)nc2c1` [Compound 851]: 1.93 nM; `O=C(N[C@@H]1C[C@@H](O)[C@@H](O)C1)c1ccn2c(Cl)c(-c3c(F)cccc3-c3cn(C4CC4)nc3F)nc2c1` [Compound 852]: 0.97 nM; `Cn1cc(-c2cccc(F)c2-c2nc3cc(C(=O)NC4CC5(CC(O)C5)C4)ccn3c2Cl)c(F)n1` (centres unmarked) [Compound 853]: 0.97 nM. Consider `Cn1cc(-c2cccc(F)c2-c2nc3cc(C(=O)NC45CCC(CO)(C4)OC5)ccn3c2Cl)c(F)n1` (centres unmarked) [Compound 854], for which the IC50 turned out to be 1.42 nM. Turning to `Cn1cc(-c2ccccc2-c2nc3cc(C(=O)NC45CCC(O)(CC4)C5)ccn3c2Cl)c(F)n1` [Compound 855], the IC50 was determined as 1.71 nM. The same measure for `CC12CC(NC(=O)c3ccn4c(Cl)c(-c5c(F)cccc5-c5cn[nH]c5)nc4c3)(C1)C2` [Compound 856]: 11.8 nM; for `Cn1cc(-c2ccc(F)c(F)c2-c2nc3cc(C(=O)N[C@H]4C[C@@](C)(O)C4)ccn3c2Cl)c(F)n1` [Compound 916]: 0.84 nM. The same measure for `Cn1cc(-c2cccc(F)c2-c2nc3cc(C(=O)N[C@H]4CC[C@](C)(O)CC4)ccn3c2Cl)c(F)n1` [Compound 917]: 0.67 nM; for `Cn1cc(-c2cccc(F)c2-c2nc3cc(C(=O)N[C@H]4CC[C@](C)(O)CC4)ccn3c2Cl)cn1` [Compound 918, 3-chloro-2-(2-fluoro-6-(1-methyl-1H-pyrazol-4-yl)phenyl)-N-((1r,4r)-4-hydroxy-4-methylcyclohexyl)imidazo[1,2-a]pyridine-7-carboxamide]: 3.48 nM; for `Cn1cc(-c2cccc(F)c2-c2nc3cc(C(=O)N[C@H]4CC[C@@](C)(O)CC4)ccn3c2Cl)c(F)n1` [Compound 919]: 1.27 nM.

Take `Cn1cc(-c2cccc(F)c2-c2nc3cc(C(=O)N[C@H]4CC5(C[C@@H](O)C5)C4)ccn3c2Cl)c(F)n1` (stereo partly drawn) [Compound 921, trans 3-chloro-2-(2-fluoro-6-(3-fluoro-1-methyl-1H-pyrazol-4-yl)phenyl)-N-(6-hydroxyspiro[3.3]heptan-2-yl)imidazo[1,2-a]pyridine-7-carboxamide]: the 50% inhibitory concentration (IC50) was found to be 0.71 nM.
